Test results reported in US11420944B2, “Voltage-dependent t-type calcium channel blocker” (Nippon Chemiphar Co., Ltd., priority 2016, dated 2022).
pIC50: −log10 of the molar value. Structures can show the parent of a compound that is named as a salt.

Target: T1, human Cav3.2 channels (Homo sapiens, UniProt O95180)
T1 construct: expressed in transfected cells; host or cells: HEK293 cells (ATCC No. CRL-1573), plasmid pcDNA3.1(+)
Experiment: Intracellular calcium concentration measurement (Fluo-4 AM) in stable cells expressing human Cav3.2 channels, buffer A / buffer B
Type: cell-based
Conditions: Table 1; buffer A, equilibrium potential of potassium −92 mV; read-out: Inhibitory action of buffer A (inactivated state)
Source text: Construction of Stable Cells Expressing Human Cav3.2 Channels
(1) A sequence produced by incorporating HindIII site and kozak sequence (GCCACC) into the 5′-terminal side of human Cav3.2 channel ORF (Open Reading Frame) gene and incorporating Kpnl site into the 3′-terminal side was incorporated into pcDNA3.1(+) (Thermo-Fisher Scientific, Inc., #V790-20), and the plasmid was transfected into HEK293 cells (ATCC No. CRL-1573) according to the protocol of FuGENE (registered trademark) HD Transfection Reagent (PROMEGA #E2311).
(2) Method for Measuring Intracellular Calcium Concentration
In the present measurement system, buffer A and buffer B having different potassium ion concentrations were used in order to evaluate the state-dependent Cav3.2 inhibitory action of a test compound.
Stable cell line expressing human Cav3.2 channels, which had been produced in (1), was seeded in a 96-well plate using DMEM medium including 10% FBS, and the cells were cultured for 48 hours under the conditions of 37° C. and 5% CO2. Subsequently, the medium was removed, and various wells that had been washed with a base buffer were treated with 80 μL of a fluorescent dye solution containing a mixed liquid of 22 μg of calcium fluorescence indicator Fluo-4 AM (Dojindo Laboratories Co., Ltd., #F311), 20 μL of DMSO, […] of 10% Pluronic F-127 (Thermo-Fisher Scientific, Inc., #P6866), and 4 mL of a base buffer. The cells were left to stand for 45 minutes at room temperature in the dark, and then the cells were washed with buffer A or buffer B. Solutions having various test compound concentrations and respectively containing buffer A or buffer B were added to the respective wells, the respective solutions containing DMSO at the same final concentration as that of the test compound as negative control, or containing the test compound dissolved in 100% DMSO at a final concentration of 0.1%. The cells were left to stand for another 15 minutes at room temperature in the dark, and the cells were analyzed using the following method using a microplate reader, EnVision (PerkinElmer, Inc.). First, the background fluorescence for each well was measured, subsequently an ionophore was added to the well, and the fluorescence of the baseline was measured. Subsequently, buffer A or buffer B containing added KCl at a concentration of 83.8 mM or 91.8 mM was added to each well, and an increase in fluorescence caused by a calcium influx generated by that stimulus was measured for 10 seconds. The percentage inhibition was calculated from the maximum fluorescence increment from the baseline, and the logarithmic value of the test compound concentration and the inhibitory activity were plotted to calculate the IC50 value. The analysis was carried out by measuring the fluorescence at 510 nm emitted when the cells were irradiated with exciting light at 485 nm.
Base buffer: 140 mM NaCl, 5 mM KCl, 1 mM MgCl2, 0.5 mM CaCl2, 10 mM Glucose, and 10 mM HEPES, pH 7.3
Buffer A: Equilibrium potential of potassium: −92 mV

T1 sequence (O95180 whole entry): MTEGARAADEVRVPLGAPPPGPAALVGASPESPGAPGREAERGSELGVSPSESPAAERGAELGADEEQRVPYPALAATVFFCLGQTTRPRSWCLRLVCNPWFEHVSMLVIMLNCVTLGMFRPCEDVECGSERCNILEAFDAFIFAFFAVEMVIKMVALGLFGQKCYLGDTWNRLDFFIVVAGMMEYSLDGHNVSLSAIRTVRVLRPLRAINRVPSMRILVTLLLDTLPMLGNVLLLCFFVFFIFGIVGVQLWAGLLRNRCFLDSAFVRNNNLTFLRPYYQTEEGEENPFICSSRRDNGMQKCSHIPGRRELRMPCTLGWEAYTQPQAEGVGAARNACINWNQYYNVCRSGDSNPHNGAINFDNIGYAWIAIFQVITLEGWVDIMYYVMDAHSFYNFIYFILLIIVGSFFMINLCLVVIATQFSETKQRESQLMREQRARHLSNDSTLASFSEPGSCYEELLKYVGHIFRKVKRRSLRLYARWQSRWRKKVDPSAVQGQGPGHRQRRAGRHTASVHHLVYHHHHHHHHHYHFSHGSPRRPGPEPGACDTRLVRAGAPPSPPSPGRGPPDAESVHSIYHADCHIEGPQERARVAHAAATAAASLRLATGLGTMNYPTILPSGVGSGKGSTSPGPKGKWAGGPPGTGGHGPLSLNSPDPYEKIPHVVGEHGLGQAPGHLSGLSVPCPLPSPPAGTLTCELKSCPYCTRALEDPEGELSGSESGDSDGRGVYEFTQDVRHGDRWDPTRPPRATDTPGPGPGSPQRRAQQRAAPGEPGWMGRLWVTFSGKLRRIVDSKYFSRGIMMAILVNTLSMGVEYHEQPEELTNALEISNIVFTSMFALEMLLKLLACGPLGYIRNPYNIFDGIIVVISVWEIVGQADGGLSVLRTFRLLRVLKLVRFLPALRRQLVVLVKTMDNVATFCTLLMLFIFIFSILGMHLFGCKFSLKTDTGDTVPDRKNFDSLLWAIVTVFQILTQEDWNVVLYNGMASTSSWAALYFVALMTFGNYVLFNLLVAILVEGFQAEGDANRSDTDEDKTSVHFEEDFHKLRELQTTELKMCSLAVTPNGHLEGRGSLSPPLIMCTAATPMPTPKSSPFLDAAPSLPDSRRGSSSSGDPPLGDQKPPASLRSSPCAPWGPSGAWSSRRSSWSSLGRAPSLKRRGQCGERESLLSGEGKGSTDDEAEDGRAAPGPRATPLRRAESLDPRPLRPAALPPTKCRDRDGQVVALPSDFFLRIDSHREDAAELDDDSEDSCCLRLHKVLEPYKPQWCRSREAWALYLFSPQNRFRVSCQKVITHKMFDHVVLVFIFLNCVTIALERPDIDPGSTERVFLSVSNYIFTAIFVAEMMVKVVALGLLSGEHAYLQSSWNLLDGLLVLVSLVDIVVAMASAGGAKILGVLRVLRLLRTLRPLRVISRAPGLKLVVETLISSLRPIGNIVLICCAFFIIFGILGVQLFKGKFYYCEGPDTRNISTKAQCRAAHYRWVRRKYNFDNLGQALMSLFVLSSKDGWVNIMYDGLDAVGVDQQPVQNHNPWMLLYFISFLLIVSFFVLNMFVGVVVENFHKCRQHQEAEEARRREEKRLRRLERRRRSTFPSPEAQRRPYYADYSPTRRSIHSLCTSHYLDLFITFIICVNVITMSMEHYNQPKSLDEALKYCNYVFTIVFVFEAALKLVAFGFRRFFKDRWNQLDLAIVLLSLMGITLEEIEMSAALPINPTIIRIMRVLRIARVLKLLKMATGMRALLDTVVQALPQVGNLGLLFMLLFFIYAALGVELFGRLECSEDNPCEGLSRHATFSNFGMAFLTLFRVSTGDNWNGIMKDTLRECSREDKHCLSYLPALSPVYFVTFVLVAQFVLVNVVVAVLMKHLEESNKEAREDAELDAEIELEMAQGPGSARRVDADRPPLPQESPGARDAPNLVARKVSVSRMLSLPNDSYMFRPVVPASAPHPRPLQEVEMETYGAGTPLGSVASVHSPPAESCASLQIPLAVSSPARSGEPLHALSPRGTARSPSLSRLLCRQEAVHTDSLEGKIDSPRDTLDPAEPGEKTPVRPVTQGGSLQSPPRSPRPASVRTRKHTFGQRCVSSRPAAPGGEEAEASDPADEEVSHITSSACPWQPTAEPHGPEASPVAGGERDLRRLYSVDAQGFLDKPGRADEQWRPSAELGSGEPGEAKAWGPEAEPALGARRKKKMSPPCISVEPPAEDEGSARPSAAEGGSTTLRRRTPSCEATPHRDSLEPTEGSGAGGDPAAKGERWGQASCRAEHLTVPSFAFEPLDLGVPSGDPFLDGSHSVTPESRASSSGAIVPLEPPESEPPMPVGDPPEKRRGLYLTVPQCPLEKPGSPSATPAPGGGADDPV

First: C[C@@H](NC(=O)C1CC1c1nc2ccccc2[nH]1)c1cnn(CCC(F)(F)F)c1 (stereo partly drawn) [Example 9]
Second: CC(NC(=O)C1CC1c1nc2ccccc2[nH]1)c1cn(C(=O)OC(C)(C)C)c2ccccc12 (stereo not drawn) [Example 10, Trans-3-(1-(2-(1H-benzo[d]imidazol-2-yl)cyclopropanecarboxamido)ethyl)-1H-indole-1-carboxylic acid tert-butyl ester]
The pIC50 of the first is lower: less than 5.00 for the first, 6.00 to 7.00 for the second.

First: C[C@@H](NC(=O)[C@@H]1CCN(c2nc3ccccc3s2)C1)c1ccc(OCC(F)(F)F)s1 [Example 13, (R)-1-(benzo[d]thiazol-2-yl)-N—((R)-1-(5-(2,2,2-trifluoroethoxy)thiophen-2-yl)ethyl)pyrrolidine-3-carboxamide]
Second: C[C@@H](NC(=O)[C@@H]1CCN(CC(=O)Nc2nccs2)C1)c1ccc(OCC(F)(F)F)s1 [Example 16, (R)-1-(2-oxoethyl-2-(thiazol-2-ylamino)ethyl)-N—((R)-1-(5-(2,2,2-trifluoroethoxy)thiophen-2-yl)ethyl)pyrrolidine-3-carboxamide]
The pIC50 of the first is lower: less than 5.00 for the first, 6.00 to 7.00 for the second. The second is the more potent here.

C[C@@H](NC(=O)[C@H]1CCN(CC(=O)NC(C)(C)C)C1)c1ccc(OCC(F)(F)F)s1 [Example 14, (S)-1-(2-(tert-butylamino)-2-oxoethyl)-N—((R)-1-(5-(2,2,2-trifluoroethoxy)thiophen-2-yl)ethyl)pyrrolidine-3-carboxamide hydrochloride] and C[C@@H](NC(=O)[C@@H]1CCN(CCC(C)(C)C)C1)c1ccc(OCC(F)(F)F)s1 [Example 18, (R)-1-(3,3-dimethylbutyl)-N—((R)-1-(5-(2,2,2-trifluoroethoxy)thiophen-2-yl)ethyl)pyrrolidine-3-carboxamide hydrochloride] fall in the same range of pIC50: 5.00 to 6.00 for the first, 5.00 to 6.00 for the second.

Same assay, conditions: Table 1; buffer B, equilibrium potential of potassium −110 mV; read-out: Inhibitory action of buffer B (resting state or closed state)

First: CC(NC(=O)C1CC1c1nc2ccccc2[nH]1)c1cn(C(=O)OC(C)(C)C)c2ccccc12 (stereo not drawn) [Example 10, Trans-3-(1-(2-(1H-benzo[d]imidazol-2-yl)cyclopropanecarboxamido)ethyl)-1H-indole-1-carboxylic acid tert-butyl ester]
Second: C[C@@H](NC(=O)[C@H]1CCN(CC(=O)NC(C)(C)C)C1)c1ccc(OCC(F)(F)F)s1 [Example 14, (S)-1-(2-(tert-butylamino)-2-oxoethyl)-N—((R)-1-(5-(2,2,2-trifluoroethoxy)thiophen-2-yl)ethyl)pyrrolidine-3-carboxamide hydrochloride]
The pIC50 of the first is higher: 6.00 to 7.00 for the first, 5.00 to 6.00 for the second. The first is the more potent here.

C[C@@H](NC(=O)[C@@H]1CCN(CC(=O)Nc2nccs2)C1)c1ccc(OCC(F)(F)F)s1 [Example 16, (R)-1-(2-oxoethyl-2-(thiazol-2-ylamino)ethyl)-N—((R)-1-(5-(2,2,2-trifluoroethoxy)thiophen-2-yl)ethyl)pyrrolidine-3-carboxamide] and C[C@@H](NC(=O)[C@@H]1CCN(CCC(C)(C)C)C1)c1ccc(OCC(F)(F)F)s1 [Example 18, (R)-1-(3,3-dimethylbutyl)-N—((R)-1-(5-(2,2,2-trifluoroethoxy)thiophen-2-yl)ethyl)pyrrolidine-3-carboxamide hydrochloride] fall in the same range of pIC50: 5.00 to 6.00 for the first, 5.00 to 6.00 for the second.

Same assay, conditions: Tables 2 to 6; buffer A, equilibrium potential of potassium −92 mV; read-out: Inhibitory action of buffer A (inactivated state)

Compared with C[C@@H](NC(=O)C1CC1c1nc2cc(Cl)ccc2[nH]1)c1nc(C2CC2)no1 (single isomer, unassigned) [Example 77A], C[C@@H](NC(=O)C1CC1c1nc2cc(Cl)cnc2[nH]1)c1ccc(OCC(F)(F)F)s1 (single isomer, unassigned) [Example 85A] is lower in pIC50: 6.00 to 7.00 for the first, 5.00 to 6.00 for the second. The first is the more potent here.

First: C[C@@H](NC(=O)C1CC1c1nc2cc(Cl)ccc2[nH]1)c1nc(C2CC2)no1 (single isomer, unassigned) [Example 77B]
Second: C[C@@H](NC(=O)C1CC1c1nc2cc(Cl)cnc2[nH]1)c1ccc(OCC(F)(F)F)s1 (single isomer, unassigned) [Example 85B]
The pIC50 of the first is higher: 5.00 to 6.00 for the first, less than 5.00 for the second.

First: C[C@@H](NC(=O)C1CC1c1c[nH]c2ccccc12)c1cc2cc(F)ccc2o1 (single isomer, unassigned) [Example 98A]
Second: C[C@@H](NC(=O)C1CC1c1ncc2ccccn12)c1cc2cc(F)ccc2o1 (single isomer, unassigned) [Example 117B]
The pIC50 of the first is higher: 6.00 to 7.00 for the first, 5.00 to 6.00 for the second. The first is the more potent here.

C[C@@H](NC(=O)C1CC1c1c[nH]c2ccccc12)c1cc2cc(F)ccc2o1 (single isomer, unassigned) [Example 98B] and C[C@@H](NC(=O)C1CC1c1ccc2cnn(C)c2c1)c1cc2cc(F)ccc2o1 (single isomer, unassigned) [Example 103A] fall in the same range of pIC50: 6.00 to 7.00 for the first, 6.00 to 7.00 for the second.

First: C[C@@H](NC(=O)C1CC1c1ccc2cnn(C)c2c1)c1cc2cc(F)ccc2o1 (single isomer, unassigned) [Example 103B]
Second: C[C@@H](NC(=O)C1CC1c1nc2cc(Cl)ccc2o1)c1cc2cc(F)ccc2o1 (single isomer, unassigned) [Example 108A]
The pIC50 of the first is lower: less than 5.00 for the first, 6.00 to 7.00 for the second. The second is the more potent here.

First: Cc1ccc2nc(C3CC3C(=O)N[C@H](C)c3ccc(OCC(F)(F)F)s3)[nH]c2n1 (single isomer, unassigned) [Example 106A]
Second: C[C@@H](NC(=O)C1CC1c1nc2c(Cl)cccc2[nH]1)c1ccc(OCC(F)(F)F)s1 (single isomer, unassigned) [Example 122A]
The pIC50 of the first is lower: 5.00 to 6.00 for the first, no less than 7.00 for the second.

First: Cc1ccc2nc(C3CC3C(=O)N[C@H](C)c3ccc(OCC(F)(F)F)s3)[nH]c2n1 (single isomer, unassigned) [Example 106B]
Second: C[C@@H](NC(=O)C1CC1c1nc2c(Cl)cccc2[nH]1)c1ccc(OCC(F)(F)F)s1 (single isomer, unassigned) [Example 122B]
The pIC50 of the first is lower: 5.00 to 6.00 for the first, 6.00 to 7.00 for the second.

Compared with C[C@@H](NC(=O)C1CC1c1nc2cc(Cl)ccc2o1)c1cc2cc(F)ccc2o1 (single isomer, unassigned) [Example 108B], C[C@@H](NC(=O)C1CC1COc1ccc(F)cc1)c1cc2cc(F)ccc2o1 (single isomer, unassigned) [Example 112A] is lower in pIC50: 6.00 to 7.00 for the first, 5.00 to 6.00 for the second.

C[C@@H](NC(=O)C1CC1COc1ccc(F)cc1)c1cc2cc(F)ccc2o1 (single isomer, unassigned) [Example 112B] and C[C@@H](NC(=O)C1CC1C(=O)Nc1cccc(C(F)(F)F)c1)c1cc2cc(F)ccc2o1 (single isomer, unassigned) [Example 130B] fall in the same range of pIC50: 6.00 to 7.00 for the first, 6.00 to 7.00 for the second.

First: CC(NC(=O)[C@H]1C[C@@H]1c1nc2ccccc2[nH]1)c1nc2ccc(F)cc2[nH]1 (single isomer, unassigned) [Example 127A]
Second: C[C@@H](NC(=O)[C@@H]1C[C@H]1c1nc2ccccc2[nH]1)c1ccc(C(=O)OC(C)(C)C)s1 [Example 25B, Trans-5-((1R)-1-(2-(1H-benzo[d]imidazol-2-yl)cyclopropane-1-carboxamido)ethyl)thiophene-2-carboxylic acid tert-butyl ester]
The pIC50 of the first is higher: 6.00 to 7.00 for the first, 5.00 to 6.00 for the second.

CC(NC(=O)[C@H]1C[C@@H]1c1nc2ccccc2[nH]1)c1nc2ccc(F)cc2[nH]1 (single isomer, unassigned) [Example 127B] and C[C@@H](NC(=O)C1CC1c1nc2ccccc2[nH]1)c1ccc(C(=O)N2CCNCC2)s1 (stereo in doubt) [Example 75, Trans-2-(1H-benzo[d]imidazol-2-yl)-N—((R)-1-(5-(piperazine-1-carbonyl)thiophen-2-yl)ethyl)cyclopropane-1-carboxamide] fall in the same range of pIC50: 5.00 to 6.00 for the first, 5.00 to 6.00 for the second.

C[C@@H](NC(=O)C1CC1c1nc2ccccc2[nH]1)c1ccc(C(=O)N2CCOCC2)s1 (stereo in doubt) [Example 56, Trans-2-(1H-benzo[d]imidazol-2-yl)-N—((R)-1-(5-(morpholine-4-carbonyl)thiophen-2-yl)ethyl)cyclopropane-1-carboxamide] and C[C@@H](NC(=O)C1CC1c1nc2ccccc2[nH]1)c1ccc(C(=O)N2CCN(C)CC2)s1 (stereo in doubt) [Example 68, Trans-2-(1H-benzo[d]imidazol-2-yl)-N—((R)-1-(5-(4-methylpiperazine-1-carbonyl)thiophen-2-yl)ethyl)cyclopropane-1-carboxamide] fall in the same range of pIC50: 5.00 to 6.00 for the first, 5.00 to 6.00 for the second.

C[C@@H](NC(=O)C1CC1c1nc2ccccc2[nH]1)c1ccc(C(=O)N2CCCC2(C)C)s1 (stereo in doubt) [Example 67, Trans-2-(1H-benzo[d]imidazol-2-yl)-N—((R)-1-(5-(2,2-dimethylpyrrolidine-1-carbonyl)thiophen-2-yl)ethyl)cyclopropane-1-carboxamide] and C[C@@H](NC(=O)[C@@H]1CCN(CC(=O)Nc2cnccn2)C1)c1ccc(OCC(F)(F)F)s1 [Example 37, (R)-1-(2-oxo-2-(pyrazin-2-ylamino)ethyl)-N—((R)-1-(5-(2,2,2-trifluoroethoxy)thiophen-2-yl)ethyl)pyrrolidine-3-carboxamide] fall in the same range of pIC50: 5.00 to 6.00 for the first, 5.00 to 6.00 for the second.
